Literature values, collected in patent US8709996B2, “Pharmaceutical treatment process using chitosan or derivative thereof” (Archimedes Development Limited, priority 2003, dated 2014).

Conditions: pig, in vivo

bioavailability of octreotide compared to a solution of octreotide alone | Substance
substantial increases in bioavailability | chitosan hydrochloride
substantial increases in bioavailability | trimethyl chitosan chloride
